Data published in patent US8293481B2, “Biomarkers for chronic vascular dysfunction” (Mayo Foundation for Medical Education and Research, priority 2006, dated 2012).

Experiments:
Test in all cases: Affymetrix microarray gene expression in aorta post-infarction
Assay type in all cases: in vivo, rat
[1] = test system: CCAAT/enhancer binding protein (C/EBP) gamma (Cebpg); conditions: 4 weeks post-infarction, higher with surgery
Source text: (§1) After intubation, rats were ventilated continuously (room air) using a small animal ventilator (Model 683, Harvard Apparatus, Holliston, Mass.). A left lateral thoracotomy incision was made along the 5th intercostal space and after the pericardium was opened, the heart was exteriorized using a retention suture placed at the apex. The left anterior descending coronary artery (LAD) was ligated twice using 6-0 prolene suture (Ethicon, Cornelia, Ga.). After chest closure with running 3-0 vicryl suture (Ethicon), rats were put in a recovery chamber with a heating pad and warming light. The post-operative survival rate reached 80%. […] Rats were fed a standard diet of Teklad rodent feed (Harlan) ad libitum and kept on a 12:12 h light-dark cycle. Rats were sacrificed at designated time intervals of 2 weeks and 4 weeks after surgery. […] Isolation of total RNA: […] Surrounding peri-adventitial tissues, fat, and endothelium were then carefully cleaned away and removed. The remaining vascular smooth muscle was then frozen with liquid nitrogen, pulverized into fine powder, and resuspended in 600 μl of Buffer RLT with β-ME (10 μl β-ME: 1 ml Buffer RLT, Qiagen, Valencia, Calif.). The lysate was pipetted directly onto a QIAshredder spin column (Qiagen) placed in a 2 ml collection tube and centrifuged for 5 minutes at 14000 rpm, 4° C. The supernatant was transferred to a new microcentrifuge tube and 1 volume of 70% ethanol was added and mixed. The cleared lysate was then transferred to an RNeasy mini-column (Qiagen) placed in a 2 ml collection tube and spun for 15 seconds at ≧10,000 rpm, 4° C. The flow-through was discarded and 700 μl of Buffer RW1 (Qiagen) was added to the RNeasy column. After the column was spun for 15 seconds at ≧10,000 rpm (4° C.), it was transferred into a new 2 ml collection tube, washed, spun twice with 500 μl Buffer RPE (Qiagen), and eluted with 40 μl of RNase-free water using a microcentrifuge (≧10,000 rpm, 4° C.) for 1 minute. Final RNA samples were stored at −20° C. to prevent degradation. Determination of gene expression using Affymetrix microarrays: Gene expression analysis was conducted using a GeneChip Rat Genome 230 2.0 Array (Affymetrix, West Sacramento, Calif.), with sequences selected from the GENBANK® (World Wide Web at ncbi.nlm.nih.gov) database for expressed sequence tags (dbEST), and Reference Sequence (RefSeq) (Benson et al. (2007) Nucleic Acids Res. 35:D21-25; and Boguski et al. (1993) Nat. Genet. 4:332-333). These sequence clusters were created from the UniGene database (Wheeler et al. (2003) Nucleic Acids Res. 31:28-33; Build 99, June 2002, World Wide Web at ncbi.nlm.nih.gov) and then refined by analysis and comparison with the publicly available draft assembly of the rat genome from the Baylor College of Medicine Human Genome Sequencing Center (Gibbs et al. (2004) Nature 428:493-521). […] GENECHIP® Scanner 3000 and GENECHIP® Operating Software (GCOS) v1.1.1 (Affymetrix, West Sacramento, Calif.), enabled for high-resolution scanning, was used for the final microarray analysis. Differentially expressed genes are listed according to their GeneID number in the National Center for Biotechnology Information (NCBI) database. To ensure accurate analysis, a minimum of 3 ng of good quality total RNA at a concentration of ≧500 pg/μl was required. RNA (1 ng) was tested for its quality using an Agilent 2100 bioanalyzer (Agilent Technologies). A RNA Integrity Number (RIN) was assigned to each sample, and RIN ≧6 was considered satisfactory for proceeding with the microarray analysis. Statistics: The Affymetrix array was used to determine gene expression at 2 weeks and 4 weeks. Uninfarcted control aorta was then compared with both captopril and placebo treated aorta. Similarly, uninfarcted control portal vein was compared with both captopril and placebo treated portal vein. […]

[2] = test system: Sel (suppressor of lin-12) 1 homolog 1h. (Sel1h); conditions: 2 weeks, infarcted rats with or without captopril
Source text: as §1

TAO kinase 1 (Taok1) = conditions: 2 weeks, infarcted rats with or without captopril
Source text: as §1

[3] = test system: acyl-CoA thioesterase (ACOT8); conditions: 2 weeks, infarcted rats with or without captopril
Source text: as §1

afadin (Af6) = conditions: 2 weeks, infarcted rats with or without captopril
Source text: as §1

[4] = test system: chemokine (C-X-C motif) ligand 12 (Cxcl12); conditions: 4 weeks, surgery group without treatment less than baseline control
Source text: as §1

[5] = test system: cytochrome c oxidase subunit Va (Cox5a); conditions: 4 weeks post-infarction, higher with surgery
Source text: as §1

glutaminase 2 (Gls2) = conditions: 4 weeks, highest in the infarct group without therapy
Source text: as §1

[6] = test system: glycerophosphodiester phosphodiesterase (MIR16); conditions: 2 weeks, infarcted rats with or without captopril
Source text: as §1

[7] = test system: regulated endocrine-specific protein 18 (Resp18); conditions: 4 weeks post-infarction, higher with surgery
Source text: as §1

[8] = test system: trafficking protein particle complex 1 (Trappc1); conditions: 4 weeks post-infarction, higher with surgery
Source text: as §1

[9] = test system: trimethyllysine hydroxylase epsilon (Tmlhe); conditions: 4 weeks, surgery group without treatment less than baseline control
Source text: as §1

C[C@H](CS)C(=O)N1CCC[C@H]1C(=O)O [Captopril, 1-[(2S)-3-mercapto-2-methylpropionyl]-L-proline]
Cebpg expression in the aorta with captopril therapy versus surgery alone [1]: further increase in expression | Sel1h aortic expression level versus control rats without surgery [2]: higher | Taok1 aortic expression level versus control rats without surgery (TAO kinase 1 (Taok1)): higher | ACOT8 aortic expression level versus control rats without surgery [3]: higher | Af6 aortic expression level versus control rats without surgery (afadin (Af6)): higher | Cxcl12 expression in the aorta with captopril [4]: increased expression | Cox5a expression in the aorta with captopril therapy versus surgery alone [5]: further increase in expression | Gls2 expression in the aorta, captopril treated group among the groups (glutaminase 2 (Gls2)): lowest | MIR16 aortic expression level versus control rats without surgery [6]: higher | Resp18 expression in the aorta with captopril therapy versus surgery alone [7]: further increase in expression | Trappc1 expression in the aorta with captopril therapy versus surgery alone [8]: further increase in expression | Tmlhe expression in the aorta with captopril [9]: increased expression
